Experimental data: patent US7951385B2, “Probiotic strain and antimicrobial peptide derived therefrom” (Cipla Medpro Research and Development (Pty) Ltd., priority 2006, dated 2011)
Bridge positions count the residues as written; N and C are the ends. Square brackets hold non-standard residues; d marks the D form. Peptide text beside a SMILES is read from it. * marks the point of attachment. Ileψ(thiazoline)Cys = CC[C@H](C)[C@H](N)C1=N[C@H](C(=O)*)CS1; dOrn = NCCC[C@@H](N)C(=O)O

Key:
[1] = tested on: strain ST4SA; test: Antibiotic resistance of strain ST4SA (antibiotic discs, Oxoid); assay type: cell-based, Enterococcus mundtii
[2] = tested on: Pseudomonas sp. isolated from infected middle-ear fluid; test: Activity on paper disks and comparison with antibiotics (inhibition zones); assay type: cell-based; settings: Ampicillin 10 μg, Bacitracin 10 units, Chloramphenicol 30 μg, Erythromycin 15 μg, Tetracycline 30 μg, peptide on paper disk
Protocol: Activity was tested against a Pseudomonas sp. isolated from infected middle-ear fluid.

[3] = tested on: strain ST4SA; test: Resistance of E. mundtii ST4 against antibiotics and anti-inflammatory drugs; assay type: cell-based, Enterococcus mundtii; settings: Ibuprofen 5, Aspirin 5, Promoxil 100, Cipadur 50, Cefasyn 100, Roxibidd 30, Doximal 20, Ciploxx 100, Utin 80, Rheugesic 4, Coxflam 1.5, K-fenak 5, Preflam 3 mg/ml
[4] = tested on: strain ST4SA; test: Growth of strain ST4SA in the presence of TMP-SMX and Metronidazole; assay type: cell-based, Enterococcus mundtii; settings: for Number of viable cells of strain ST4SA: NAN Palargon, 18 h, 37° C., control 1 × 10^8
Protocol: Children with HIV/AIDS are treated with Trimethoprim-sulfamethoxazole (TMP-SMX) and/or Metronidazole to prevent diarrhea.

[5] = tested on: Lactobacillus sakei DSM 20017; test: Blocking of the Lipid II target site with vancomycin; assay type: cell-based; settings: L. sakei DSM 20017, FIG. 26
Description: To test this hypothesis, the Lipid II target site of Lactobacillus sakei DSM 20017 (sensitive to peptide ST 4SA) was blocked with vancomycin (see schematic presentation, FIG. 26). Vancomycin adheres to the amino acid side chain of the Lipid II molecule, which would, theoretically, prevent peptide ST4SA from binding to the same site (that is if Lipid II acts as receptor). […] The fact that peptide ST4SA binds to more than one anchoring site on the sensitive cell may explain why it has such a broad spectrum of antimicrobial activity (inhibitory to Gram-positive and Gram-negative bacteria).

[6] = Pseudomonas, read-out: Diameter of inhibition zones

Compound | Inhibition zone of antibiotic on ST4 [1] | Resistance of strain ST4SA to antibiotic [1] | also measured
CC1(C)S[C@@H]2[C@H](NC(=O)[C@H](N)c3ccccc3)C(=O)N2[C@H]1C(=O)O [Ampicillin] | +++ (+++ = inhibition zone, diameter larger than 17 mm) |  | zone of inhibition at 10 µg/disc [2, 6]: 24 mm
CC(=O)Oc1ccccc1C(=O)O [Aspirin] |  |  | Inhibition zone of medicament on Strain ST4SA [3]: + (+ = diameters between 1 mm and 11 mm)
CC[C@H](C)[C@H](N)C1=N[C@H](C(=O)N[C@@H](CC(C)C)C(=O)N[C@H](CCC(=O)O)C(=O)N[C@H](C(=O)N[C@H]2CCCCNC(=O)[C@H](CC(N)=O)NC(=O)[C@@H](CC(=O)O)NC(=O)[C@H](Cc3cnc[nH]3)NC(=O)[C@@H](Cc3ccccc3)NC(=O)[C@H]([C@@H](C)CC)NC(=O)[C@@H](CCCN)NC2=O)[C@@H](C)CC)CS1 [Bacitracin] ({Ileψ(thiazoline)Cys}-L[dE]IK[dOrn]I[dF]H[dD]N; lactam 4-C) | ++ (++ = inhibition zone, diameter 12 to 16 mm) |  | Diameter of inhibition zones [2]: 10 mm
Cc1nnc(SCC2=C(C(=O)O)N3C(=O)[C@@H](NC(=O)Cn4cnnn4)[C@H]3SC2)s1 [Cephazolin] | + (+ = inhibition zone, diameter 1 to 11 mm) |  | 
O=C(N[C@H](CO)[C@H](O)c1ccc([N+](=O)[O-])cc1)C(Cl)Cl [Chloramphenicol] | +++ (+++ = inhibition zone, diameter larger than 17 mm) |  | zone of inhibition at 30 µg/disc [2, 6]: 28 mm
O=C(O)c1cn(C2CC2)c2cc(N3CCNCC3)c(F)cc2c1=O [Ciprofloxzcin] | +++ (+++ = inhibition zone, diameter larger than 17 mm) |  | 
Cc1onc(-c2ccccc2Cl)c1C(=O)N[C@@H]1C(=O)N2[C@@H]1SC(C)(C)[C@@H]2C(=O)O [Cloxacillin] | − | resistant | 
CC[C@H]1OC(=O)[C@H](C)[C@@H](O[C@H]2C[C@@](C)(OC)[C@@H](O)[C@H](C)O2)[C@H](C)[C@@H](O[C@@H]2O[C@H](C)C[C@H](N(C)C)[C@H]2O)[C@](C)(O)C[C@@H](C)C(=O)[C@H](C)[C@@H](O)[C@]1(C)O [Erythromycin] | +++ (+++ = inhibition zone, diameter larger than 17 mm) |  | Diameter of inhibition zones [2]: No zone
CC(C)Cc1ccc(C(C)C(=O)O)cc1 (stereo not shown) [Ibuprofen] |  |  | Inhibition zone of medicament on Strain ST4SA [3]: ++ (++ = diameters between 12 mm and 16 mm)
COc1cccc(OC)c1C(=O)N[C@@H]1C(=O)N2[C@@H]1SC(C)(C)[C@@H]2C(=O)O [Methicillin] | − | resistant | 
Cc1ncc([N+](=O)[O-])n1CCO [Metronidazole] | − | resistant | Decrease of cell numbers of strain ST4SA [4]: four; Number of viable cells of strain ST4SA ([4]; Metronidazole 50 mg): 1.3 × 10^4; Number of viable cells of strain ST4SA ([4]; Metronidazole 100 mg): 6 × 10^4; Number of viable cells of strain ST4SA ([4]; Metronidazole 200 mg): 3 × 10^4
CO[C@@H]1[C@@H](OC(N)=O)[C@@H](O)[C@H](Oc2ccc3c(O)c(NC(=O)c4ccc(O)c(CC=C(C)C)c4)c(=O)oc3c2C)OC1(C)C [Novobiocin] | +++ (+++ = inhibition zone, diameter larger than 17 mm) |  | 
C[C@@H]1[C@H](O)[C@@H](C)/C=C/C=C/CC/C=C/C=C/C=C/C=C/C(O[C@H]2O[C@H](C)[C@@H](O)[C@H](N)[C@@H]2O)CC2O[C@](O)(CC(O)C(O)CCC(O)CC(O)CC(O)CC(=O)O[C@H]1C)CC(O)C2C(=O)O (stereo partly shown) [Nystatin] | − | resistant | 
CC1COc2c(N3CCN(C)CC3)c(F)cc3c(=O)c(C(=O)O)cn1c23 (stereo not shown) [Oflaxacin] | ++ (++ = inhibition zone, diameter 12 to 16 mm) |  | 
Cc1onc(-c2ccccc2)c1C(=O)N[C@@H]1C(=O)N2[C@@H]1SC(C)(C)[C@@H]2C(=O)O [Oxacillin] | − | resistant | 
CO[C@H]1/C=C/O[C@@]2(C)Oc3c(C)c(O)c4c(O)c(c(/C=N/N5CCN(C)CC5)c(O)c4c3C2=O)NC(=O)/C(C)=C\C=C\[C@H](C)[C@H](O)[C@@H](C)[C@@H](O)[C@@H](C)[C@H](OC(C)=O)[C@@H]1C [Rifampicin] | +++ (+++ = inhibition zone, diameter larger than 17 mm) |  | 
[H]/N=C(/N)N[C@H]1[C@H](O)[C@@H](O)[C@H](O[C@@H]2O[C@@H](C)[C@](O)(C=O)[C@H]2O[C@@H]2O[C@@H](CO)[C@H](O)[C@@H](O)[C@@H]2NC)[C@@H](N/C(N)=N\[H])[C@@H]1O [Streptomycin] | − | resistant | 
CN(C)[C@@H]1C(O)=C(C(N)=O)C(=O)[C@@]2(O)C(O)=C3C(=O)c4c(O)cccc4[C@@](C)(O)[C@H]3C[C@@H]12 [Tetracycline] | +++ (+++ = inhibition zone, diameter larger than 17 mm) |  | zone of inhibition at 30 µg/disc [2, 6]: 35 mm
CN[C@H](CC(C)C)C(=O)N[C@H]1C(=O)N[C@@H](CC(N)=O)C(=O)N[C@H]2C(=O)N[C@H]3C(=O)N[C@H](C(=O)N[C@H](C(=O)O)c4cc(O)cc(O)c4-c4cc3ccc4O)[C@H](O)c3ccc(c(Cl)c3)Oc3cc2cc(c3O[C@@H]2O[C@H](CO)[C@@H](O)[C@H](O)[C@H]2O[C@H]2C[C@](C)(N)[C@H](O)[C@H](C)O2)Oc2ccc(cc2Cl)[C@H]1O [Vancomycin] | ++ (++ = inhibition zone, diameter 12 to 16 mm) |  | 
Neomycin | − | resistant | 
Nisin [reference compound] |  |  | Effect on target cells after blocking Lipid II with vancomycin [5]: prevented the binding of Nisin to the Lipid II target site
Penicillin | +++ (+++ = inhibition zone, diameter larger than 17 mm) |  | 
Trimethoprim-sulfamethoxazole [TMP-SMX] |  |  | Decrease of cell numbers of strain ST4SA [4]: four; Number of viable cells of strain ST4SA ([4]; TMP-SMX 20/100 mg): 7 × 10^4; Number of viable cells of strain ST4SA ([4]; TMP-SMX 40/200 mg): 8 × 10^4; Number of viable cells of strain ST4SA ([4]; TMP-SMX 60/300 mg): 8 × 10^4; Number of viable cells of strain ST4SA ([4]; TMP-SMX 80/400 mg): 1.8 × 10^4
